# According to PubChem BioAssay AID1996:
# Conditions: buffer; pH 7.4; 200.0 µM
row,SMILES,solubility kinetic
1,CCCCNc1nc(Cl)nc(Nc2ccc(C)cc2)n1,1.7 µg/mL
2,CCOC(=O)N1CCN(C(=O)c2cc3cc(C)ccc3[nH]2)CC1,41.6 µg/mL
3,CC1CCCC(C)N1C(=O)CSc1nccc(=O)[nH]1 (centres undefined),29.3 µg/mL
4,CCCCn1c(N)c(N(CCOC)C(=O)CSc2nnc(-c3ccco3)n2CC)c(=O)[nH]c1=O,> 73.7 µg/mL
5,Cc1cc(C)c(OCCCCCn2ccnc2)c(C)c1,> 40.9 µg/mL
6,O=[N+]([O-])c1ccc(Cl)cc1NCC1CCCO1 (centres undefined),28 µg/mL
7,O=C(COc1ccc(Cl)cc1Br)NC(=O)NC1CCCC1,6.4 µg/mL
8,CC(C)CN1C2CCCC1CC(NC(=S)NCc1ccco1)C2 (centres undefined),> 50.3 µg/mL
9,COc1ccc(NC(=S)N2CCCCCC2)cc1OC,42.4 µg/mL
10,O=C(Nc1ccc(Cl)c(Cl)c1)c1ccco1,8.5 µg/mL
11,CSc1sc(C(=O)N2CCCCC2)c(-c2cccs2)c1C#N,31.6 µg/mL
12,CCCc1nnc(SCC(=O)NC2CC2)n1CC,> 40.3 µg/mL
13,CC(C)(CNc1ccc(C(F)(F)F)cc1[N+](=O)[O-])N1CCOCC1,5.5 µg/mL
14,Cc1ccc(C)c(OCCC(=O)OCC(=O)NC2CCCC2)c1,43.5 µg/mL
15,CN(Cc1nc(-c2ccc(C(F)(F)F)cc2)no1)C1CCOCC1,37.3 µg/mL
16,C#CCN1CCN(c2ccc(F)cc2)CC1,30 µg/mL
17,Cc1ccc2cc(C)c(SCC(=O)Nc3cc(C)on3)nc2c1,< 0.2 µg/mL
18,O=C(NCCCn1ccnc1)c1cc(C(=O)C2CCCCC2)c[nH]1,49 µg/mL
19,Cc1cc(C)nc(NC=C2C(=O)OC(C)(C)OC2=O)n1,41 µg/mL
20,CC1CC1C(=O)Nc1nc(-c2ccc(Cl)s2)cs1 (centres undefined),0.6 µg/mL
21,O=C(CN1C(=O)C(=O)N(CCC2=CCCCC2)C1=O)Nc1ccc(F)cc1F,6.5 µg/mL
22,O=C(C1CCCC1)N1CCN(S(=O)(=O)c2cccc(Cl)c2Cl)CC1,27.4 µg/mL
23,CC(C)CC(OC(=O)c1ccco1)C(=O)NC1CCCC1 (centres undefined),41.1 µg/mL
24,CCOc1ccc(NC(=S)N2CCCCCC2)cc1,> 41.8 µg/mL
25,Cc1cc([N+](=O)[O-])cc2c1NC(=O)C2(O)N1CCCC(C)C1 (centres undefined),28.3 µg/mL
26,COc1cc2c(cc1OC)C(NC(=O)C(F)(F)F)C/C2=N\O (centres undefined),> 47.7 µg/mL

# Other lines, results leading:
row,solubility kinetic,SMILES
1,5.8 µg/mL,Cc1cc2sc3nc(=O)n(-c4ccccc4)c(=O)n3c2cc1C
2,35.3 µg/mL,O=[N+]([O-])c1ccc(N2CCN(Cc3ccncc3)CC2)cc1
3,6.7 µg/mL,CCNC(=O)c1ccc(CSc2nc3ccccc3s2)cc1
4,< 0.3 µg/mL,NS(=O)(=O)c1ccc(NC(=O)c2ccc3c(c2)OCO3)cc1
5,3.1 µg/mL,Cc1ccc(CNC(=O)c2ccc3c(c2)NC(=O)CS3)cc1
6,> 30.3 µg/mL,N#Cc1cnn(-c2ccc(F)cc2)c1N
7,> 63.5 µg/mL,Cc1ccc(S(=O)(=O)Nc2ccc(S(=O)(=O)Nc3nccs3)cc2)cc1C
8,19 µg/mL,O=C(Cc1ccc(Cl)cc1)N1CCN(c2ccc(F)cc2)CC1
9,6.3 µg/mL,O=C(/C=C/c1cccc(F)c1)Nc1cc(S(=O)(=O)N2CCOCC2)ccc1Cl
10,> 49.7 µg/mL,C=CCN(Cc1cccs1)C(=O)COc1ccc2c(c1)OCO2
11,> 47.4 µg/mL,Cc1onc(C(=O)N2CCN(c3ccccc3)CC2)c1[N+](=O)[O-]
12,> 34.2 µg/mL,O=C(NCc1ccccc1)c1cc[n+]([O-])cc1
13,39.5 µg/mL,Cc1ccc(C(O)c2ccc(-n3ccnc3)cc2)cc1 (centres undefined)
14,54.2 µg/mL,Cc1ccc(OCC(=O)N2CCC3(CC2)CC(=O)c2ccccc2O3)cc1
15,53.9 µg/mL,NC(=O)C1CCN(c2nc3ccccc3nc2NS(=O)(=O)c2ccc(Br)cc2)CC1
16,3 µg/mL,COc1ccc(N2CCN(c3ccc([N+](=O)[O-])nc3)CC2)cc1
17,> 40.9 µg/mL,CCc1ccc(N2CC(C(=O)NC3CC3)CC2=O)cc1 (centres undefined)

row,solubility kinetic,SMILES
1,49.9 µg/mL,O=c1c2sc3ccccc3c2[nH]c(=S)n1CCN1CCOCC1
2,< 0.6 µg/mL,O=c1c(NCCc2ccccc2)c(-c2ccccc2)c1=O
3,> 68.8 µg/mL,CN(CC(=O)NCCc1ccc(S(N)(=O)=O)cc1)CC(=O)Nc1ccc(F)c(F)c1F
4,> 36.6 µg/mL,Cc1ccc(Sc2ncccc2C(N)=O)cc1
5,> 46.4 µg/mL,CC(C)(C)NC(=O)COC(=O)CCC(=O)c1ccc(F)cc1
6,37 µg/mL,N/C(=N\O)c1cccc(CS(=O)(=O)c2ccccn2)c1
7,> 49.9 µg/mL,Cc1ccccc1-n1c(=O)n(Cc2ccccc2)c(=O)c2[nH]cnc21
8,> 54.9 µg/mL,O=C(Nc1cc(S(=O)(=O)N2CCCC2)ccc1Cl)c1ccncc1
9,> 44.6 µg/mL,O=C(Cn1cnc2c(oc3ccccc32)c1=O)N1CCCC1
10,19.6 µg/mL,CCCOCc1ccc(O)c2ncccc12
11,44.4 µg/mL,Cc1ccc(NC(=O)OCCNC(=O)c2ccncc2)cc1
12,> 61.6 µg/mL,CCCCn1c(N)c(N(C)C(=O)c2c(C)nn(-c3ccccc3)c2C)c(=O)[nH]c1=O
13,4.8 µg/mL,O=C(COC(=O)c1ccc(S(=O)(=O)N2CCOCC2)cc1)Nc1ccccc1OC(F)F
14,> 47.7 µg/mL,Cc1ccnc(NC(=O)CCNC(=O)c2ccccc2Cl)c1
15,3.9 µg/mL,O=[N+]([O-])c1ccccc1CN1CCN(Cc2ccc3ccccc3c2)CC1
16,13.3 µg/mL,COc1ccc(C)cc1NC(=S)NC(C)c1ccc(OC)c(OC)c1 (centres undefined)
